Test results from the supplement of paper PMC10307832.

What was measured:
Experiment in all cases: relative viability (nuclei count vs DMSO), 5 days (fraction); higher = more cells survive
[1] = compound: N#CC[C@H](C1CCCC1)n1cc(-c2ncnc3[nH]ccc23)cn1 [Ruxolitinib] + O=C(c1cc(Cc2n[nH]c(=O)c3ccccc23)ccc1F)N1CCN(C(=O)C2CC2)CC1 [Olaparib] (partner 8 µM)
How it was run: (§1)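 One day after seeding in 1536-well plates, lung cancer cell lines were dosed by pin tool. Dosing was either single-drug or a fixed anchor-drug dose plus five library-drug doses (not always all listed) in √10 steps. After 5 days, nuclei were stained in one fix-and-stain step and counted on 4× images, and relative viability is the nuclei count of treated wells over that of vehicle wells, given as the median of duplicate plates.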

[2] = compound: CS(=O)(=O)c1ccc(-c2cnc(N)c(C(=O)Nc3ccccc3)n2)cc1 [VE-821] + NC(=O)Nc1cc(-c2cccc(F)c2)sc1C(=O)N[C@H]1CCCNC1 [AZD7762] (partner 0.2 µM)
How it was run: as §1

[3] = compound: CS(=O)(=O)c1ccc(C(=O)Nc2ccc(Cl)c(-c3ccccn3)c2)c(Cl)c1 [Vismodegib] + NC(=O)Nc1cc(-c2cccc(F)c2)sc1C(=O)N[C@H]1CCCNC1 [AZD7762] (partner 0.2 µM)
How it was run: as §1

[4] = compound: CS(=O)(=O)c1ccc(-c2cnc(N)c(C(=O)Nc3ccccc3)n2)cc1 [VE-821] + Cc1nc(Nc2ncc(C(=O)Nc3c(C)cccc3Cl)s2)cc(N2CCN(CCO)CC2)n1 [Dasatinib] (partner 0.075 µM)
How it was run: as §1

| Cell Line | relative viability ([1]; first compound 0.08 µM) | relative viability ([1]; first compound 0.253 µM) | relative viability ([1]; first compound 0.8 µM) | relative viability ([1]; first compound 2.53 µM) | relative viability ([1]; first compound 8 µM) | relative viability ([2]; first compound 0.08 µM) | relative viability ([2]; first compound 0.253 µM) | relative viability ([2]; first compound 0.8 µM) | relative viability ([2]; first compound 2.53 µM) | relative viability ([2]; first compound 8 µM) | relative viability ([3]; first compound 0.08 µM) | relative viability ([3]; first compound 0.8 µM) | relative viability ([3]; first compound 2.53 µM) | relative viability ([3]; first compound 8 µM) | relative viability ([4]; first compound 0.08 µM) | relative viability ([4]; first compound 0.253 µM) | relative viability ([4]; first compound 0.8 µM) | relative viability ([4]; first compound 2.53 µM) | relative viability ([4]; first compound 8 µM) | relative viability ([3]; first compound 0.253 µM) |
| --- | --- | --- | --- | --- | --- | --- | --- | --- | --- | --- | --- | --- | --- | --- | --- | --- | --- | --- | --- | --- |
| NCI-H1703 | 0.44 | 0.439 | 0.55 | 0.237 | 0.315 | 0.0991 | 0.11 | 0.14 | 0.119 | 0.1 | 0.139 | 0.134 | 0.104 | 0.152 | – | – | – | – | – | – |
| NCI-H1395 | 0.44 | 0.419 | 0.456 | 0.443 | 0.476 | 0.379 | 0.391 | 0.369 | 0.366 | 0.362 | 0.42 | 0.412 | 0.455 | 0.41 | 0.396 | 0.432 | 0.38 | 0.45 | 0.401 | 0.397 |
| NCI-H647 | 0.578 | 0.687 | 0.596 | 0.475 | 0.31 | 0.46 | 0.235 | – | 0.217 | 0.0695 | 0.474 | 0.415 | 0.375 | 0.51 | 0.232 | 0.168 | 0.152 | 0.194 | 0.122 | 0.482 |
| NCI-H23 | 0.371 | 0.369 | 0.311 | 0.242 | 0.17 | 0.18 | 0.148 | 0.153 | 0.14 | 0.126 | 0.264 | 0.276 | 0.23 | 0.232 | 0.881 | 0.746 | 0.78 | 0.603 | 0.283 | 0.34 |
| SK-LU-1 | 0.428 | 0.456 | 0.572 | 0.381 | 0.359 | – | – | – | – | – | – | – | – | – | 0.17 | 0.19 | 0.163 | 0.16 | 0.12 | – |
| EBC-1 | 0.718 | 0.726 | 0.77 | 0.708 | 0.533 | – | – | – | – | – | – | – | – | – | – | – | – | – | – | – |
| NCI-H661 | 0.771 | 0.81 | 0.735 | 0.808 | 0.614 | – | – | – | – | – | – | – | – | – | 0.934 | 0.668 | 0.884 | 0.865 | 0.434 | – |
| SW 1573 | 0.518 | 0.586 | 0.473 | 0.416 | 0.352 | – | – | – | – | – | – | – | – | – | 0.49 | 0.573 | 0.551 | 0.503 | 0.218 | – |
| NCI-H1299 | 0.939 | 0.998 | 0.963 | 0.985 | 0.757 | – | – | – | – | – | – | – | – | – | – | – | – | – | – | – |
| Calu-6 | 0.575 | 0.62 | 0.577 | – | 0.39 | – | – | – | – | – | – | – | – | – | – | – | – | – | – | – |
| IA-LM | 0.98 | 0.867 | 0.805 | 0.819 | 0.669 | – | – | – | – | – | – | – | – | – | – | – | – | – | – | – |
| NCI-H1650 | 0.689 | 0.784 | 0.879 | 0.836 | 0.751 | – | – | – | – | – | – | – | – | – | 0.312 | 0.322 | 0.28 | 0.255 | 0.211 | – |
| NCI-H1648 | 0.854 | 0.852 | 1.11 | 1.35 | 1.18 | 0.582 | – | 0.49 | 0.473 | 0.319 | 0.811 | 0.833 | 0.693 | 0.696 | – | – | – | – | – | 0.717 |
| NCI-H520 | 0.298 | 0.375 | 0.366 | 0.343 | 0.284 | – | – | – | – | – | – | – | – | – | 0.232 | 0.23 | 0.166 | 0.298 | 0.165 | – |
| A549 | 0.226 | 0.36 | 0.35 | 0.331 | 0.0796 | – | – | – | – | – | – | – | – | – | – | – | – | – | – | – |
